The molecules below were run against T1, human neutrophil elastase (HNE) (Homo sapiens, UniProt P08246) (assay: HNE inhibition assay). Details: not given.
T1 sequence (P08246 30-267): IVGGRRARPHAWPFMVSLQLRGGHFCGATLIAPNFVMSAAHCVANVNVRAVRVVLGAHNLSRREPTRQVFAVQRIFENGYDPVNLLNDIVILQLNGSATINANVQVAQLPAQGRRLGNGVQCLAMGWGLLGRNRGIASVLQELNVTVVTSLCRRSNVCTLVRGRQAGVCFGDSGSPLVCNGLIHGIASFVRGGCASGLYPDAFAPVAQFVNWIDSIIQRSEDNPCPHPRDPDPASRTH
Format: biochemical
Molecule `Cc1cccc(C(=O)n2cc(C#N)c3cc(-c4ccsc4)cnc32)c1` [Compound 14f, 1-(3-methylbenzoyl)-5-(thiophen-3-yl)-1H-pyrrolo[2,3-b]pyridine-3-carbonitrile] has an IC50 of 42 ± 15 nM.
`Cc1cccc(C(=O)n2cc(C#N)c3cc([N+](=O)[O-])cnc32)c1` [Compound 7c, 1-(3-Methylbenzoyl)-5-nitro-1H-pyrrolo[2,3-b]pyridine-3-carbonitrile] showed an IC50 of 400 ± 110 nM.
Molecule `Cc1cccc(C(=O)n2cc(C#N)c3cc(-c4cccc(C)c4)cnc32)c1` [Compound 14c, 1-(3-Methylbenzoyl)-5-(m-tolyl)-1H-pyrrolo[2,3-b]pyridine-3-carbonitrile] has an IC50 of 130 ± 40 nM.
`Cc1cccc(C(=O)n2cc(C#N)c3cc(Cl)cnc32)c1` [Compound 7b, 5-Chloro-1-(3-methylbenzoyl)-1H-pyrrolo[2,3-b]pyridine-3-carbonitrile] gave an IC50 of 160 ± 50 nM.
`Cc1cccc(C(=O)n2cc(C#N)c3cc(-c4cccnc4)cnc32)c1` [Compound 14g, 1-(3-methylbenzoyl)-5-(pyridin-3-yl)-1H-pyrrolo[2,3-b]pyridine-3-carbonitrile] gave an IC50 of 15 ± 4 nM.
`Cc1cccc(C(=O)n2c(C#N)cc3cccnc32)c1` [Compound 2d, 1-(3-Methylbenzoyl)-1H-pyrrolo[2,3-b]pyridine-2-carbonitrile] gave an IC50 of 3500 ± 1200 nM.
Molecule `Cc1cccc(C(=O)n2c(C)c(C#N)c3cccnc32)c1` [Compound 2e, 2-Methyl-1-(3-methylbenzoyl)-1H-pyrrolo[2,3-b]pyridine-3-carbonitrile] has an IC50 of 10800 ± 2200 nM.
`Cc1cccc(C(=O)n2cc(C#N)c3cc(-c4cccc(C(F)(F)F)c4)cnc32)c1` [Compound 14b, 1-(3-Methylbenzoyl)-5-(3-(trifluoromethyl)phenyl)-1H-pyrrolo[2,3-b]pyridine-3-carbonitrile] showed an IC50 of 180 ± 70 nM.
With `COc1ccc2cc(-c3cnc4c(c3)c(C#N)cn4C(=O)c3cccc(C)c3)ccc2c1` [Compound 14e, 5-(6-Methoxynaphthalen-2-yl)-1-(3-methylbenzoyl)-1H-pyrrolo[2,3-b]pyridine-3-carbonitrile] the IC50 was 1600 ± 330 nM.
With `Cc1cccc(C(=O)n2cc(C#N)c3cc(-c4ccccc4)cnc32)c1` [Compound 14a, 1-(3-Methylbenzoyl)-5-phenyl-1H-pyrrolo[2,3-b]pyridine-3-carbonitrile] the IC50 was 50 ± 20 nM.
`Cc1cccc(C(=O)n2cc(C#N)c3cc(Br)cnc32)c1` [Compound 7a, 5-Bromo-1-(3-methylbenzoyl)-1H-pyrrolo[2,3-b]pyridine-3-carbonitrile] was tested, and the IC50 was 51 ± 14 nM.
`COc1cccc(-c2cnc3c(c2)c(C#N)cn3C(=O)c2cccc(C)c2)c1` [Compound 14d, 5-(3-Methoxyphenyl)-1-(3-methylbenzoyl)-1H-pyrrolo[2,3-b]pyridine-3-carbonitrile] was tested, and the IC50 was 70 ± 15 nM.

Same assay, conditions: ratio of HNE IC50 values
`Cc1cccc(C(=O)n2cc(C#N)c3cc([N+](=O)[O-])cnc32)c1` [Compound 7c, 1-(3-Methylbenzoyl)-5-nitro-1H-pyrrolo[2,3-b]pyridine-3-carbonitrile] was tested, and the “fold less potent than the 5-chloro derivative 7b” value was “about 2 fold”.
With `Cc1cccc(C(=O)n2cc(C#N)c3cc(Br)cnc32)c1` [Compound 7a, 5-Bromo-1-(3-methylbenzoyl)-1H-pyrrolo[2,3-b]pyridine-3-carbonitrile] the “fold more potent than the 5-chloro derivative 7b” value was “about 3 fold”.
